Where “and” joins values, the source holds several entries; their conditions need not be identical. Equal values may be shown once.
Key:
MUC 1 cell lines = assay: Br and NAC with chemotherapy drugs in MUC 1 cell lines (FIG. 11, 12); assay type: cell-based; conditions: low doses of Cisplatin, FIG. 11 and 12
Excerpt: The combination of Br and NAC with chemotherapy drugs in MUC 1 cell lines was investigated (see FIGS. 11 and 12).

[1] = test system: mesothelioma cell lines PET and YOU (MUC1); assay: Growth inhibition of MUC1 mesothelioma cell lines (FIG. 9, 10); assay type: cell-based
Excerpt: The two mesothelioma cell lines PET and YOU (both of which have MUC1) were investigated. These cell lines are different from cancer cells which secrete mucin externally or that have mucin internally in the cell (signet cell).

[2] = test system: MKN 45 human gastric mucin secreting cancer cell line; assay: In vitro growth, SRB assay, 72 hour culture (FIG. 7a); assay type: cell-based; conditions: MKN 45, SRB assay, agents individually
Experimental: MKN 45 is a human gastric mucin secreting cancer cell line. The effect of NAC, Br and the combination on in vitro growth (SRB assay, 72 hour culture) was studied.

variant of HT29 (5M21) = assay: Effect of Br and NAC combination on chemotherapy (FIG. 8); assay type: cell-based
Excerpt: Chemo resistance of mucin secreting cancers is common. The experiments in FIG. 8 again relate to a variant of HT29 (5M21). A combination of Br and NAC was effective, whereas the individual agents were not effective.

human PMP mucin = assay: Time course for dissolution of human PMP mucin in the laboratory (FIG. 1); assay type: biochemical; conditions: FIG. 1, agent alone
PMP tumor/mucin = assay: Breakdown of PMP tumor/mucin specimens from 31 patients in the laboratory; assay type: biochemical, human; conditions: for Residual mucin weight post treatment: 300 μg/ml Br, 5% NAC or both
Experimental: Specimens of tumor/mucin were taken from the abdomen and then subjected to treatment in the laboratory with 300 μg/ml Br, 5% NAC, or a mixture of both, for 3 hours at 37° C. The weight of mucin tumor was measured before and after treatment.

N.N.[Cl][Pt][Cl] [Cisplatin, cisplatin]
efficacy in MUC 1 cell lines (MUC 1 cell lines): ineffective

CC(=O)N[C@@H](CS)C(=O)O [NAC, N-acetyl cysteine]
growth inhibition of PET and YOU ([1]; 50 mM NAC alone): ineffective | growth inhibition of PET and YOU ([1]; FIG. 9 and 10): no action | effect on in vitro growth [2]: no or little effect | efficacy against 5M21 (variant of HT29 (5M21)): not effective | effect on dissolution of human PMP mucin (human PMP mucin): no effect | effect of treatment on PMP tumor (Table 1) (PMP tumor/mucin; agent alone, 31 patients): ineffective | reduction of weight of mucin tumor (PMP tumor/mucin; in every case, agent on its own, 300 μg/ml Br or 5% NAC, 3 hours at 37° C.): no (or a very modest) reduction of weight | Residual mucin weight post treatment (PMP tumor/mucin; patient P1, mucin type soft, 3 hours at 37° C.): 1.90 g and 1.67 g | Residual mucin weight post treatment (PMP tumor/mucin; patient P2, mucin type soft, 3 hours at 37° C.): 1.39 g and 1.53 g | Residual mucin weight post treatment (PMP tumor/mucin; patient P3, mucin type soft, 3 hours at 37° C.): 1.80 g and 1.83 g | Residual mucin weight post treatment (PMP tumor/mucin; patient P4, mucin type Semi solid, 3 hours at 37° C.): 1.28 g and 1.53 g | Residual mucin weight post treatment (PMP tumor/mucin; patient P5, mucin type Hard, 3 hours at 37° C.): 1.69 g and 1.79 g | Residual mucin weight post treatment (PMP tumor/mucin; patient P6, mucin type soft, 3 hours at 37° C.): 2.13 g and 2.08 g | Residual mucin weight post treatment (PMP tumor/mucin; patient P7, mucin type soft, 3 hours at 37° C.): 2.13 g and 2.08 g | Residual mucin weight post treatment (PMP tumor/mucin; patient P8, mucin type soft, 3 hours at 37° C.): 0.95 g and 1.61 g | Residual mucin weight post treatment (PMP tumor/mucin; patient P9, mucin type Signet ring carcinoma, 3 hours at 37° C.): 1.42 g and 1.56 g | Residual mucin weight post treatment (PMP tumor/mucin; patient P10, mucin type Hard, 3 hours at 37° C.): 1.82 g and 1.73 g | Residual mucin weight post treatment (PMP tumor/mucin; patient P12, mucin type Semi Hard, 3 hours at 37° C.): 1.81 g and 1.94 g | Residual mucin weight post treatment (PMP tumor/mucin; patient P13, mucin type Hard, 3 hours at 37° C.): 1.73 g and 1.43 g | Residual mucin weight post treatment (PMP tumor/mucin; patient P14, mucin type soft, 3 hours at 37° C.): 1.60 g and 1.57 g | Residual mucin weight post treatment (PMP tumor/mucin; patient P15, mucin type soft, 3 hours at 37° C.): 1.36 g and 1.37 g | Residual mucin weight post treatment (PMP tumor/mucin; patient P16, mucin type soft, 3 hours at 37° C.): 1.69 g and 1.62 g | Residual mucin weight post treatment (PMP tumor/mucin; patient P17, Scraped mucin from mucoid tissues, 3 hours at 37° C.): 2.64 g | Residual mucin weight post treatment (PMP tumor/mucin; patient P18, mucin type soft, 3 hours at 37° C.): 2.31 g and 2.24 g | Residual mucin weight post treatment (PMP tumor/mucin; patient P19, Semi soft Mucin deposits on tissue, 3 hours at 37° C.): 1.79 g and 1.89 g | Residual mucin weight post treatment (PMP tumor/mucin; patient P20, mucin type soft, 3 hours at 37° C.): 2.34 g and 2.36 g | Residual mucin weight post treatment (PMP tumor/mucin; patient P21, mucin type soft, 3 hours at 37° C.): 2.38 g and 1.74 g | Residual mucin weight post treatment (PMP tumor/mucin; patient P22, Adeno-carcinoma, 3 hours at 37° C.): 1.74 g and 1.64 g | Residual mucin weight post treatment (PMP tumor/mucin; patient P23, mucin type Semi solid, 3 hours at 37° C.): 1.76 g | Residual mucin weight post treatment (PMP tumor/mucin; patient P24, Mucin deposits on tissue, 3 hours at 37° C.): 1.64 g and 1.46 g | Residual mucin weight post treatment (PMP tumor/mucin; patient P25, mucin type Hard, 3 hours at 37° C.): 1.49 g and 1.37 g | Residual mucin weight post treatment (PMP tumor/mucin; patient P26, mucin type Hard, 3 hours at 37° C.): 1.23 g and 1.26 g | Residual mucin weight post treatment (PMP tumor/mucin; patient P27, mucin type soft, 3 hours at 37° C.): 1.92 g and 2.03 g | Residual mucin weight post treatment (PMP tumor/mucin; patient P28, mucin type soft, 3 hours at 37° C.): 1.48 g | Residual mucin weight post treatment (PMP tumor/mucin; patient P29, mucin type soft, 3 hours at 37° C.): 1.21 g | Residual mucin weight post treatment (PMP tumor/mucin; patient P30, mucin type soft, 3 hours at 37° C.): 1.26 g and 1.16 g | Residual mucin weight post treatment (PMP tumor/mucin; patient P31, mucin type Hard, 3 hours at 37° C.): 1.56 g and 1.84 g

Reference: patent US11369666B2, “Treatment of diseases involving mucin” (NewSouth Innovations Pty Limited, priority 2012, dated 2022)
